According to patent publication US20090105316A1, “Biphenyl Thiazole Carboxamides” (Bayer CropScience AG, priority 2004, published 2009):

Test: Log P determination by HPLC on a reversed-phase column (EEC Directive 79/831, Annex V.A8)
Assay type: physicochemical
Conditions: reversed-phase HPLC column (C 18); pH 2.3
Description: The determination of the Log P values occurred according to EEC Directive 79/831, Annex V.A8 using HPLC (High Performance Liquid Chromatography) on a reversed-phase column (C 18). Temperature: 43° C. Eluents for determination in the acidic range (pH 2.3): 0.1% aqueous phosphoric acid, acetonitrile; linear gradient of 10% acetonitrile to 90% acetonitrile. Calibration took place using unbranched alkane-2-ones (with 3 to 16 carbon atoms) with known Log P values (the Log P values were determined on the basis of the retention times by way of linear interpolation between two consecutive alkanones).

| chromatographic logP | SMILES |
| --- | --- |
| 4.48 | Cc1ccc(-c2cc(C(F)(F)F)ccc2NC(=O)c2sc(C)nc2C(F)(F)F)cc1 [Compound 1.15, 2-methyl-N-[4′-methyl-5-(trifluoromethyl)biphenyl-2-yl]-4-(trifluoromethyl)-1,3-thiazole-5-carboxamide] |
| 3.98 | Cc1ccc(-c2cc(C(F)(F)F)ccc2N)cc1 [4′-methyl-5-(trifluoromethyl)biphenyl-2-amine] |
